Experimental data reported in PubChem BioAssay (NCI).
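Test compounds were applied to cells in 96-well plates for 48 hours at 5 doses. TGI is the concentration that stops growth completely.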

Legend:
Assay in all cases: NCI-60 cell line screen, 48 h
[1] = tested on: 786-0 renal
[2] = tested on: A498 renal
[3] = tested on: A549 NSCLC
[4] = tested on: CAKI-1 renal
[5] = tested on: COLO 205 colon
[6] = tested on: DLD-1 colon
[7] = tested on: DMS 114 small cell lung
[8] = tested on: DMS 273 small cell lung
[9] = tested on: EKVX NSCLC
[10] = tested on: HCC-2998 colon
[11] = tested on: HCT-116 colon
[12] = tested on: HCT-15 colon
[13] = tested on: HL-60(TB) leukemia
[14] = tested on: HOP-18 NSCLC
[15] = tested on: HOP-62 NSCLC
[16] = tested on: HOP-92 NSCLC
[17] = tested on: HT29 colon
[18] = tested on: IGROV1 ovarian
[19] = tested on: K-562 leukemia
[20] = tested on: KM12 colon
[21] = tested on: KM20L2 colon
[22] = tested on: LOX IMVI melanoma
[23] = tested on: LXFL 529 NSCLC
[24] = tested on: M14 melanoma
[25] = tested on: M19-MEL melanoma
[26] = tested on: MALME-3M melanoma
[27] = tested on: MOLT-4 leukemia
[28] = tested on: NCI-H226 lung
[29] = tested on: NCI-H23 lung
[30] = tested on: NCI-H460 lung
[31] = tested on: NCI-H522 lung
[32] = tested on: OVCAR-3 ovarian
[33] = tested on: OVCAR-4 ovarian
[34] = tested on: OVCAR-5 ovarian
[35] = tested on: OVCAR-8 ovarian
[36] = tested on: RPMI-8226 leukemia
[37] = tested on: RXF 393 renal
[38] = tested on: RXF-631 renal
[39] = tested on: SF-268 CNS
[40] = tested on: SF-295 CNS
[41] = tested on: SF-539 CNS
[42] = tested on: SK-MEL-5 melanoma
[43] = tested on: SK-OV-3 ovarian
[44] = tested on: SN12C renal
[45] = tested on: SNB-19 CNS
[46] = tested on: SNB-75 CNS
[47] = tested on: SNB-78 CNS
[48] = tested on: SR leukemia
[49] = tested on: SW-620 colon
[50] = tested on: TK-10 renal
[51] = tested on: U251 CNS
[52] = tested on: UACC-257 melanoma
[53] = tested on: UACC-62 melanoma
[54] = tested on: UO-31 renal
[55] = tested on: XF 498 CNS
[56] = tested on: CCRF-CEM leukemia
[57] = tested on: SK-MEL-2 melanoma
[58] = tested on: SK-MEL-28 melanoma
[59] = tested on: ACHN renal

For `CSC(=S)c1ccc(C(=S)SC)cc1`, the TGI [1] was > 100 µM, the TGI [2] was > 100 µM and the TGI [3] was > 100 µM. The TGI [4] was > 100 µM, the TGI [5] was > 100 µM and the TGI [6] was > 100 µM. For the same compound, the TGI [7] was > 100 µM, the TGI [8] was > 100 µM and the TGI [9] was > 100 µM. The TGI [10] was > 100 µM, the TGI [11] was > 100 µM and the TGI [12] was > 100 µM. The TGI [13] was > 100 µM, the TGI [14] was > 100 µM and the TGI [15] was > 100 µM. The TGI [16] was > 100 µM, the TGI [17] was > 100 µM and the TGI [18] was > 100 µM. For the same compound, the TGI [19] was > 100 µM, the TGI [20] was > 100 µM and the TGI [21] was > 100 µM. For the same compound, the TGI [22] was > 100 µM, the TGI [23] was > 100 µM and the TGI [24] was > 100 µM. The TGI [25] was > 100 µM, the TGI [26] was > 100 µM and the TGI [27] was > 100 µM. The TGI [28] was > 100 µM, the TGI [29] was > 100 µM and the TGI [30] was > 100 µM. For the same compound, the TGI [31] was > 100 µM, the TGI [32] was > 100 µM and the TGI [33] was > 100 µM. For the same compound, the TGI [34] was > 100 µM, the TGI [35] was > 100 µM and the TGI [36] was > 100 µM. The TGI [37] was > 100 µM, the TGI [38] was > 100 µM and the TGI [39] was > 100 µM. For the same compound, the TGI [40] was > 100 µM, the TGI [41] was > 100 µM and the TGI [42] was > 100 µM. The TGI [43] was > 100 µM, the TGI [44] was > 100 µM and the TGI [45] was > 100 µM. The TGI [46] was > 100 µM, the TGI [47] was > 100 µM and the TGI [48] was > 100 µM. For the same compound, the TGI [49] was > 100 µM, the TGI [50] was > 100 µM and the TGI [51] was > 100 µM. For the same compound, the TGI [52] was > 100 µM, the TGI [53] was > 100 µM and the TGI [54] was > 100 µM. The TGI [55] was > 100 µM.

For `O=P(c1ccccc1)(c1ccccc1)C1CC=C(c2ccccc2)C2(CCCC2)C1` (configuration not stated), the TGI [1] was > 100 µM, the TGI [2] was > 100 µM and the TGI [3] was > 100 µM. The TGI [4] was > 100 µM, the TGI [56] was > 100 µM and the TGI [5] was 56.7 µM. For the same compound, the TGI [6] was > 100 µM, the TGI [7] was > 100 µM and the TGI [8] was > 100 µM. The TGI [9] was > 100 µM, the TGI [11] was > 100 µM and the TGI [12] was > 100 µM. It also gave a TGI [13] of 50.7 µM, a TGI [14] of 76.9 µM and a TGI [16] of 67.5 µM. The TGI [17] was > 100 µM, the TGI [18] was > 100 µM and the TGI [19] was > 100 µM. For the same compound, the TGI [20] was > 100 µM, the TGI [21] was > 100 µM and the TGI [22] was > 100 µM. For the same compound, the TGI [23] was > 100 µM, the TGI [24] was > 100 µM and the TGI [25] was > 100 µM. The TGI [26] was > 100 µM, the TGI [27] was 53.1 µM and the TGI [28] was > 100 µM. For the same compound, the TGI [29] was > 100 µM, the TGI [30] was > 100 µM and the TGI [32] was > 100 µM. The TGI [33] was > 100 µM, the TGI [34] was > 100 µM and the TGI [35] was > 100 µM. For the same compound, the TGI [36] was 52.1 µM, the TGI [37] was > 100 µM and the TGI [38] was > 100 µM. The TGI [39] was > 100 µM, the TGI [40] was > 100 µM and the TGI [41] was > 100 µM. For the same compound, the TGI [57] was > 100 µM, the TGI [58] was > 100 µM and the TGI [42] was > 100 µM. The TGI [43] was > 100 µM, the TGI [44] was > 100 µM and the TGI [45] was > 100 µM. For the same compound, the TGI [46] was > 100 µM, the TGI [47] was > 100 µM and the TGI [49] was > 100 µM. For the same compound, the TGI [50] was > 100 µM, the TGI [51] was > 100 µM and the TGI [52] was > 100 µM. For the same compound, the TGI [53] was > 100 µM, the TGI [54] was 75.3 µM and the TGI [55] was > 100 µM.

With `C/C(=N\N=C(N)N)C(CN(CC(C)C)CC(C)C)C(=O)Nc1ccc(C)cc1C` (configuration not stated) the TGI [1] was > 100 µM, the TGI [2] was > 100 µM and the TGI [3] was > 100 µM. The TGI [59] was > 100 µM, the TGI [4] was > 100 µM and the TGI [56] was > 100 µM. For the same compound, the TGI [5] was > 100 µM, the TGI [6] was > 100 µM and the TGI [7] was > 100 µM. For the same compound, the TGI [8] was > 100 µM, the TGI [9] was > 100 µM and the TGI [10] was > 100 µM. For the same compound, the TGI [11] was > 100 µM, the TGI [12] was > 100 µM and the TGI [13] was > 100 µM. For the same compound, the TGI [14] was > 100 µM, the TGI [15] was > 100 µM and the TGI [16] was > 100 µM. For the same compound, the TGI [17] was > 100 µM, the TGI [18] was > 100 µM and the TGI [19] was > 100 µM. For the same compound, the TGI [20] was > 100 µM, the TGI [21] was > 100 µM and the TGI [22] was > 100 µM. For the same compound, the TGI [23] was > 100 µM, the TGI [24] was > 100 µM and the TGI [25] was > 100 µM. The TGI [26] was > 100 µM, the TGI [27] was > 100 µM and the TGI [28] was > 100 µM. For the same compound, the TGI [29] was > 100 µM, the TGI [30] was > 100 µM and the TGI [31] was > 100 µM. For the same compound, the TGI [32] was > 100 µM, the TGI [33] was > 100 µM and the TGI [34] was > 100 µM. For the same compound, the TGI [35] was > 100 µM, the TGI [37] was > 100 µM and the TGI [38] was > 100 µM. The TGI [39] was > 100 µM, the TGI [40] was > 100 µM and the TGI [41] was > 100 µM. The TGI [57] was > 100 µM, the TGI [58] was > 100 µM and the TGI [42] was > 100 µM. The TGI [43] was > 100 µM, the TGI [44] was > 100 µM and the TGI [45] was > 100 µM. The TGI [46] was > 100 µM, the TGI [47] was > 100 µM and the TGI [48] was > 100 µM. For the same compound, the TGI [49] was > 100 µM, the TGI [50] was > 100 µM and the TGI [51] was > 100 µM. For the same compound, the TGI [52] was > 100 µM, the TGI [53] was > 100 µM and the TGI [54] was > 100 µM. For the same compound, the TGI [55] was > 100 µM.
